# Legend:
# GlyT2 WT = target: T1, GlyT2 WT (Homo sapiens, UniProt Q9Y345); details: read-out: Glycine EC50, glycine transport, mean ± SEM
# T1 sequence (Q9Y345 1-797): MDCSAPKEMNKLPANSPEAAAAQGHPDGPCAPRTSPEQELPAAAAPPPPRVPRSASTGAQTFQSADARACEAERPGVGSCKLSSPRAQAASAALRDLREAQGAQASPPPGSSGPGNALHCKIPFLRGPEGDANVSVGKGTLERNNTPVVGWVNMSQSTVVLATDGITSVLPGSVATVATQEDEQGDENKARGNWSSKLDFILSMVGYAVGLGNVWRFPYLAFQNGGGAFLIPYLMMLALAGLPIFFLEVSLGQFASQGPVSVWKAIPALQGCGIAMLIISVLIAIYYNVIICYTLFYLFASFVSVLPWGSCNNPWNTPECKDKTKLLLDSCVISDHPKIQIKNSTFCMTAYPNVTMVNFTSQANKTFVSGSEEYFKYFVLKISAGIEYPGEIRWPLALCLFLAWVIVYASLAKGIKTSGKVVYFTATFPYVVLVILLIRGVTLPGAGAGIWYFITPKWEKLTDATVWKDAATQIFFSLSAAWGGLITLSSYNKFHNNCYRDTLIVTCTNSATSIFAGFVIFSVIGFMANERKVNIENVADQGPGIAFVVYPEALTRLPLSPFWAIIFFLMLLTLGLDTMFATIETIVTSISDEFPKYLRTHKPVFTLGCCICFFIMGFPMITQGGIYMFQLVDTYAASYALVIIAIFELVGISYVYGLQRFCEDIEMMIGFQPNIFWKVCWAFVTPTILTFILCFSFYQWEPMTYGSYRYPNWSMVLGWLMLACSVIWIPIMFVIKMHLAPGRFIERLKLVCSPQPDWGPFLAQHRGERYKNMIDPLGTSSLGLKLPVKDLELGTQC
# Description: (§1) Human GlyT1b or GlyT2a (herein referred to as GlyT1 and GlyT2) cDNA were sub-cloned into the plasmid oocyte transcription vector (pOTV). Site-directed mutagenesis was performed using traditional PCR techniques, and sequences confirmed by the Australian Genome Research Facility (Sydney, Australia). WT and mutant plasmid DNA were linearised with SpeI (New England Biolabs (Genesearch) Arundel, Australia) and RNA transcribed by T7 RNA polymerase using the mMessagemMachine kit (Ambion, TX, USA).
# (§2) Oocytes were extracted from female Xenopus laevis frogs and detached from follicle cell containing lobes by digestion with 2 mg/mL collagenase A (Boehringer, Mannheim, Germany). Defoliculated stage V-VI oocytes were injected with 4.6 ng of cRNA encoding WT or mutant transporter (Drummond Nanoinject, Drummond Scientific Co., Broomall, PA, USA). Surgical proceedures have been approved by the University of Sydney Animal Ethics Committee (protocol 2016/970). […]
# (§3) 2–5 days following injection, glycine transport currents were measured at −60 mV using Geneclamp 500 amplifier (Axon Instruments, Foster City, CA, USA) with a Powerlab 2/20 chart recorder (ADInstruments, Sydney, Australia) and chart software (ADInstruments). All data were subsequently analysed using GraphPad Prism 7.02 (GraphPad Software, San Diego, CA). […]
# GlyT1 WT = details: read-out: Glycine EC50, glycine transport
# Description: as §1, §2, §3
smiles,measurement,setting,value
NCC(=O)O [Glycine],EC50,GlyT2 WT,14.5 ± 2.6 µM
same,EC50,GlyT1 WT,14.4 ± 1.2 µM

# Reference: PMC6797481, “Identification of an allosteric binding site on the human glycine transporter, GlyT2, for bioactive lipid analgesics” (eLife, 2019)
